Each structure is given as a SMILES string. Bounds are passed on as bounds.

Take `O=C(Nc1nnn(CC(F)(F)F)n1)C1c2ccccc2Oc2ccccc21`: the melting point lay in the range of 209 to 210 °C.

`O=C(NCc1ccc(F)c(F)c1)c1ccnc(N2CCN(CC3CC3)C2=O)c1`: the melting point lay in the range of 134 to 136 °C.

In turn, `Cc1cc(-c2cc(COS(C)(=O)=O)c(=O)n(Cc3ccc(Cl)cc3)n2)ccc1F` had a melting point of 132 to 133 °C.

`CN(C)CCOc1ccccc1-c1cc(NC(N)=O)c(C(N)=O)s1` yielded a melting point of 180 °C.

With `CC(C)CNC(=O)CC1Sc2sc(S(N)(=O)=O)cc2NC1=O` (stereo unspecified), the melting point was > 250 °C.

As to `Cn1nc(-c2ccc3c(c2)CCNCC3)ccc1=O`, the melting point fell in the range of 183 to 185 °C.

In turn, `CCc1nc2c(N)nc3ccccc3c2n1OC(C)C` returned a melting point of 242 to 243 °C.

For the compound `CC(C)c1ccc2c(c1)C(c1ccc(Cl)c(Cl)c1)Cc1cnc(N)nc1-2` (stereo unspecified), the melting point was 174 to 176 °C.

Turning to `Cc1ccc(C23CCN(C)CC2O3)cc1` (stereo unspecified), the melting point lay within 46 to 50 °C.

In turn, `CCCNc1c2c(nc3ccccc13)CCCC2O` (stereo unspecified) displayed a melting point of 164 °C.

Regarding `O=C(O)CN=C(O)c1ccc(C(O)=NCC(=O)O)c2c(C(=O)O)ccc(C(=O)O)c12`, the melting point is > 300 °C.

Turning to `Cc1cc(O)n(C)c(=O)c1C#N`, the melting point came to 285 °C.

For the compound `Cn1nc(-c2ccccc2)nc1-c1ccccc1CO`, the melting point amounted to 122 °C.

In turn, `Cc1[nH]c(=O)cc2c1CC(c1ccccn1)CC2` (stereo unspecified) returned a melting point of 260 °C.

As to `COc1ccc(N=c2scc(-c3ccc(Cl)c(S(=O)(=O)N(C)C)c3)n2C)cc1`, the melting point is 198 to 199 °C.

Regarding `COc1cc(C(=O)Nc2ccccc2C(c2ccc(O)cc2)c2ccc(O)cc2)ccc1[N+](=O)[O-]`, the melting point is 129 to 131 °C.

`N=C(N)c1ccc2cc(OC(=O)CC3CCCCC3)ccc2c1` gave a melting point of 203 to 205 °C.

As for `N#Cc1ccc(C2=Nc3ccc(-c4ccccc4F)cc3NC(=O)C2)s1`, the melting point is > 250 °C.

`CC(=O)OC1CSC(Oc2cncc(-c3ncccc3C)c2)C(OC(C)=O)C1OC(C)=O` (stereo unspecified) had a melting point of 148 to 150 °C.

In turn, `Cc1[nH]c(=O)oc1C(=O)c1ccc(-n2ccnc2)cc1` displayed a melting point of 320 °C.

With `COc1c(O)cc2c(c1Sc1ccccc1)CCN(C)CC2`, the melting point lay within 161 to 162 °C.

Compound `CC(C)c1cccc(N2CC(=O)NC(=O)N2)c1` returned a melting point of 130 to 132 °C.

Turning to `COc1cc(C)c2c(c1C)CC(=O)N2`, the melting point is 262 to 263 °C.

Consider `CC(COc1ccccc1)=C1SC(=O)NC1=O`, for which the melting point lay within 153 to 155 °C.

In turn, `COC(=O)CN(NC(N)=O)c1ccc(Oc2ccccc2)cc1` displayed a melting point of 110 to 113 °C.

For the compound `CC(C)(C)OC(=O)C1CC(c2ccc(-c3ccc(N4C[C@H](Cn5ccnn5)OC4=O)cc3F)cn2)=NO1` (stereo partly specified), the melting point lay within 165 to 168 °C.

In turn, `O=C(c1ccccc1)C(O)C1OC(n2ccc(=O)[nH]c2=O)C(O)(C(=O)c2ccccc2)C1(O)C(=O)c1ccccc1` (stereo unspecified) returned a melting point of 119 to 120 °C.

`CC(=O)c1ccc(Nc2cccc(-c3cnc(N)nc3)c2)c(N)c1` came in with a melting point of 228 to 230 °C.

For the compound `NC(C(=O)N(N)c1ccc2ccccc2c1)c1ccccc1` (stereo unspecified), the melting point lay in the range of 176 to 178 °C.

Turning to `COC(=O)c1cc(-c2ccc(SC)cc2)nn(CC=Cc2ccc(Cl)cc2)c1=O`, the melting point lay in the range of 123 to 126 °C.

For `COC(=O)CNc1cccc(C)c1`, the melting point was determined as 40 °C.

Compound `CCOC(=O)c1ccc(COCc2csc3nc(C(=O)NCc4cccc(CS(C)(=O)=O)c4)[nH]c(=O)c23)cc1` returned a melting point of 227 to 229 °C.

`CC(C)=NNC(=O)NCCCN(C)C` displayed a melting point of 49 to 53 °C.

As to `Cc1ccnc(-c2nc3ccccc3[nH]2)c1`, the melting point fell in the range of 228 to 229 °C.

`O=Cc1c(O)cccc1OCc1ccc(C(=O)O)cc1`: the melting point lay in the range of 239 to 240 °C.

For `COc1cccc(NC(=O)c2cc(C)sc2Br)c1O`, the melting point was 169 to 172 °C.

A word on the melting point: it is the temperature, or range, at which the solid turns liquid.

The values are drawn from a melting point compilation (Tetko et al.; mined from patent text by program, amines drawn as free bases though some values may be those of a salt).
